{
  "source": "ChEMBL document CHEMBL5634115",
  "about": "“Exploring novel anticancer pyrazole benzenesulfonamides featuring tail approach strategy as carbonic anhydrase inhibitors” (Eur J Med Chem, 2023)",
  "key": {"CCRF-CEM": {"system": "CCRF-CEM", "test": "cells", "type": "functional", "details": "Homo sapiens, time 48 hrs", "description": "Growth inhibition of human CCRF-CEM cells measured after 48 hrs by sulforhodamine B assay"}, "MOLT-4": {"system": "MOLT-4", "test": "cells", "type": "functional", "details": "Homo sapiens, time 48 hrs", "description": "Growth inhibition of human MOLT-4 cells measured after 48 hrs by sulforhodamine B assay"}, "SR": {"system": "SR", "test": "cells", "type": "functional", "details": "Homo sapiens, time 48 hrs", "description": "Growth inhibition of human SR cells measured after 48 hrs by sulforhodamine B assay"}, "HOP-62": {"system": "HOP-62", "test": "cells", "type": "functional", "details": "Homo sapiens, time 48 hrs", "description": "Growth inhibition of human HOP-62 cells measured after 48 hrs by sulforhodamine B assay"}, "NCI-H522 [1]": {"system": "NCI-H522", "test": "cells", "type": "functional", "details": "Homo sapiens, time 48 hrs", "description": "Growth inhibition of human NCI-H522 cells measured after 48 hrs by sulforhodamine B assay"}, "HCT-15": {"system": "HCT-15", "test": "cells", "type": "functional", "details": "Homo sapiens, time 48 hrs", "description": "Growth inhibition of human HCT-15 cells measured after 48 hrs by sulforhodamine B assay"}, "SW-620": {"system": "SW-620", "test": "cells", "type": "functional", "details": "Homo sapiens, time 48 hrs", "description": "Growth inhibition of human SW620 cells measured after 48 hrs by sulforhodamine B assay"}, "SF-268 [2]": {"system": "SF-268", "test": "cells", "type": "functional", "details": "Homo sapiens, time 48 hrs", "description": "Growth inhibition of human SF-268 cells measured after 48 hrs by sulforhodamine B assay"}, "SF-539 [3]": {"system": "SF-539", "test": "cells", "type": "functional", "details": "Homo sapiens, time 48 hrs", "description": "Growth inhibition of human SF-539 cells measured after 48 hrs by sulforhodamine B assay"}, "SNB-19": {"system": "SNB-19", "test": "cells", "type": "functional", "details": "Homo sapiens, time 48 hrs", "description": "Growth inhibition of human SNB-19 cells measured after 48 hrs by sulforhodamine B assay"}, "SNB-75 [4]": {"system": "SNB-75", "test": "cells", "type": "functional", "details": "Homo sapiens, time 48 hrs", "description": "Growth inhibition of human SNB-75 cells measured after 48 hrs by sulforhodamine B assay"}, "U-251": {"system": "U-251", "test": "cells", "type": "functional", "details": "Homo sapiens, time 48 hrs", "description": "Growth inhibition of human U-251 cells measured after 48 hrs by sulforhodamine B assay"}, "M14 [5]": {"system": "M14", "test": "cells", "type": "functional", "details": "Homo sapiens, time 48 hrs", "description": "Growth inhibition of human M14 cells measured after 48 hrs by sulforhodamine B assay"}, "MDA-MB-435": {"system": "MDA-MB-435", "test": "cells", "type": "functional", "details": "Homo sapiens, time 48 hrs", "description": "Growth inhibition of human MDA-MB-435 cells measured after 48 hrs by sulforhodamine B assay"}, "SK-MEL-2": {"system": "SK-MEL-2", "test": "cells", "type": "functional", "details": "Homo sapiens, time 48 hrs", "description": "Growth inhibition of human SK-MEL-2 cells measured after 48 hrs by sulforhodamine B assay"}, "SK-MEL-28": {"system": "SK-MEL-28", "test": "cells", "type": "functional", "details": "Homo sapiens, time 48 hrs", "description": "Growth inhibition of human SK-MEL-28 cells measured after 48 hrs by sulforhodamine B assay"}, "SK-OV-3 [6]": {"system": "SK-OV-3", "test": "cells", "type": "functional", "details": "Homo sapiens, time 48 hrs", "description": "Growth inhibition of human SK-OV-3 cells measured after 48 hrs by sulforhodamine B assay"}, "A498": {"system": "A498", "test": "cells", "type": "functional", "details": "Homo sapiens, time 48 hrs", "description": "Growth inhibition of human A498 cells measured after 48 hrs by sulforhodamine B assay"}, "MDA-MB-231": {"system": "MDA-MB-231", "test": "cells", "type": "functional", "details": "Homo sapiens, time 48 hrs", "description": "Growth inhibition of human MDA-MB-231 cells measured after 48 hrs by sulforhodamine B assay"}, "RPMI-8226 [7]": {"system": "RPMI-8226", "test": "cells", "type": "functional", "details": "Homo sapiens, time 48 hrs", "description": "Cytostatic activity against human RPMI-8226 cells assessed as total growth inhibition measured after 48 hrs by sulforhodamine B assay"}, "A549 [8]": {"system": "A549", "test": "cells", "type": "functional", "details": "Homo sapiens, time 48 hrs", "description": "Cytostatic activity against human A549 cells assessed as total growth inhibition measured after 48 hrs by sulforhodamine B assay"}, "EKVX": {"system": "EKVX", "test": "cells", "type": "functional", "details": "Homo sapiens, time 48 hrs", "description": "Cytostatic activity against human EKVX cells assessed as total growth inhibition measured after 48 hrs by sulforhodamine B assay"}, "NCI-H23": {"system": "NCI-H23", "test": "cells", "type": "functional", "details": "Homo sapiens, time 48 hrs", "description": "Cytostatic activity against human NCI-H23 cells assessed as total growth inhibition measured after 48 hrs by sulforhodamine B assay"}, "NCI-H522 [9]": {"system": "NCI-H522", "test": "cells", "type": "functional", "details": "Homo sapiens, time 48 hrs", "remark": "listed apart in the source", "description": "Cytostatic activity against human NCI-H522 cells assessed as total growth inhibition measured after 48 hrs by sulforhodamine B assay"}, "HCC 2998": {"system": "HCC 2998", "test": "cells", "type": "functional", "details": "Homo sapiens, time 48 hrs", "description": "Cytostatic activity against human HCC 2998 cells assessed as total growth inhibition measured after 48 hrs by sulforhodamine B assay"}, "HCT-116 [10]": {"system": "HCT-116", "test": "cells", "type": "functional", "details": "Homo sapiens, time 48 hrs", "description": "Cytostatic activity against human HCT-116 cells assessed as total growth inhibition measured after 48 hrs by sulforhodamine B assay"}, "HT-29 [11]": {"system": "HT-29", "test": "cells", "type": "functional", "details": "Homo sapiens, time 48 hrs", "description": "Cytostatic activity against human HT-29 cells assessed as total growth inhibition measured after 48 hrs by sulforhodamine B assay"}, "KM12": {"system": "KM12", "test": "cells", "type": "functional", "details": "Homo sapiens, time 48 hrs", "description": "Cytostatic activity against human KM12 cells assessed as total growth inhibition measured after 48 hrs by sulforhodamine B assay"}, "SF-268 [12]": {"system": "SF-268", "test": "cells", "type": "functional", "details": "Homo sapiens, time 48 hrs", "remark": "listed apart in the source", "description": "Cytostatic activity against human SF-268 cells assessed as total growth inhibition measured after 48 hrs by sulforhodamine B assay"}, "M14 [13]": {"system": "M14", "test": "cells", "type": "functional", "details": "Homo sapiens, time 48 hrs", "remark": "listed apart in the source", "description": "Cytostatic activity against human M14 cells assessed as total growth inhibition measured after 48 hrs by sulforhodamine B assay"}, "OVCAR-5": {"system": "OVCAR-5", "test": "cells", "type": "functional", "details": "Homo sapiens, time 48 hrs", "description": "Cytostatic activity against human OVCAR-5 cells assessed as total growth inhibition measured after 48 hrs by sulforhodamine B assay"}, "786-0 [14]": {"system": "786-0", "test": "cells", "type": "functional", "details": "Homo sapiens, time 48 hrs", "description": "Cytostatic activity against human 786-0 cells assessed as total growth inhibition measured after 48 hrs by sulforhodamine B assay"}, "ACHN": {"system": "ACHN", "test": "cells", "type": "functional", "details": "Homo sapiens, time 48 hrs", "description": "Cytostatic activity against human ACHN cells assessed as total growth inhibition measured after 48 hrs by sulforhodamine B assay"}, "SN12C": {"system": "SN12C", "test": "cells", "type": "functional", "details": "Homo sapiens, time 48 hrs", "description": "Cytostatic activity against human SN12C cells assessed as total growth inhibition measured after 48 hrs by sulforhodamine B assay"}, "UO-31": {"system": "UO-31", "test": "cells", "type": "functional", "details": "Homo sapiens, time 48 hrs", "description": "Cytostatic activity against human UO-31 cells assessed as total growth inhibition measured after 48 hrs by sulforhodamine B assay"}, "DU-145": {"system": "DU-145", "test": "cells", "type": "functional", "details": "Homo sapiens, time 48 hrs", "description": "Cytostatic activity against human DU-145 cells assessed as total growth inhibition measured after 48 hrs by sulforhodamine B assay"}, "Hs-578T": {"system": "Hs-578T", "test": "cells", "type": "functional", "details": "Homo sapiens, time 48 hrs", "description": "Cytostatic activity against human Hs-578T cells assessed as total growth inhibition measured after 48 hrs by sulforhodamine B assay"}, "Carbonic anhydrase 12": {"molecular_target": "Carbonic anhydrase 12 (Homo sapiens, UniProt O43570)", "sequence (O43570 whole entry)": "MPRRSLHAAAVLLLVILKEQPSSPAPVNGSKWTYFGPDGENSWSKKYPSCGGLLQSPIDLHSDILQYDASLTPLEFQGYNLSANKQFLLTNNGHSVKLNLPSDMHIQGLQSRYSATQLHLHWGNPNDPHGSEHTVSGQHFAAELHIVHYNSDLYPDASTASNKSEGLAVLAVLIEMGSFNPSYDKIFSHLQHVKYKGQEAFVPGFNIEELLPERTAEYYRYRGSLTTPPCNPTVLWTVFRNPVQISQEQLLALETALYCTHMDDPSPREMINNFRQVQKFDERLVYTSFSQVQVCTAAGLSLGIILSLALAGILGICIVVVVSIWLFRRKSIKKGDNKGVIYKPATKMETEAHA", "description": "Inhibition of human carbonic anhydrase 12 preincubated for 15 mins followed by substrate addition and measured after 30 mins by spectrophotometric method"}, "RPMI-8226 [15]": {"system": "RPMI-8226", "test": "cells", "details": "Homo sapiens, RPMI-8226, 48 h, read-out: LC50", "description": "Cytotoxicity activity against human RPMI-8226 cells assessed as reduction in cell growth measured after 48 hrs by sulforhodamine B assay"}, "A549 [16]": {"system": "A549", "test": "cells", "details": "Homo sapiens, A549, 48 h, read-out: LC50", "description": "Cytotoxicity activity against human A549 cells assessed as reduction in cell growth measured after 48 hrs by sulforhodamine B assay"}, "NCI-H522 [17]": {"system": "NCI-H522", "test": "cells", "details": "Homo sapiens, NCI-H522, 48 h, read-out: LC50", "description": "Cytotoxicity activity against human NCI-H522 cells assessed as reduction in cell growth measured after 48 hrs by sulforhodamine B assay"}, "HCT-116 [18]": {"system": "HCT-116", "test": "cells", "details": "Homo sapiens, HCT-116, 48 h, read-out: LC50", "description": "Cytotoxicity activity against human HCT-116 cells assessed as reduction in cell growth measured after 48 hrs by sulforhodamine B assay"}, "HT-29 [19]": {"system": "HT-29", "test": "cells", "details": "Homo sapiens, HT-29, 48 h, read-out: LC50", "description": "Cytotoxicity activity against human HT-29 cells assessed as reduction in cell growth measured after 48 hrs by sulforhodamine B assay"}, "SF-539 [20]": {"system": "SF-539", "test": "cells", "details": "Homo sapiens, SF-539, 48 h, read-out: LC50", "description": "Cytotoxicity activity against human SF-539 cells assessed as reduction in cell growth measured after 48 hrs by sulforhodamine B assay"}, "SNB-75 [21]": {"system": "SNB-75", "test": "cells", "details": "Homo sapiens, SNB-75, 48 h, read-out: LC50", "description": "Cytotoxicity activity against human SNB-75 cells assessed as reduction in cell growth measured after 48 hrs by sulforhodamine B assay"}, "Malme-3M": {"system": "Malme-3M", "test": "cells", "details": "Homo sapiens, 48 h, read-out: LC50", "description": "Cytotoxicity activity against human Malme-3M cells assessed as reduction in cell growth measured after 48 hrs by sulforhodamine B assay"}, "SK-MEL-5": {"system": "SK-MEL-5", "test": "cells", "details": "Homo sapiens, SK-MEL-5, 48 h, read-out: LC50", "description": "Cytotoxicity activity against human SK-MEL-5 cells assessed as reduction in cell growth measured after 48 hrs by sulforhodamine B assay"}, "NCI/ADR-RES": {"system": "NCI/ADR-RES", "test": "cells", "details": "Homo sapiens, 48 h, read-out: LC50", "description": "Cytotoxicity activity against human NCI/ADR-RES cells assessed as reduction in cell growth measured after 48 hrs by sulforhodamine B assay"}, "SK-OV-3 [22]": {"system": "SK-OV-3", "test": "cells", "details": "Homo sapiens, SK-OV-3, 48 h, read-out: LC50", "description": "Cytotoxicity activity against human SK-OV-3 cells assessed as reduction in cell growth measured after 48 hrs by sulforhodamine B assay"}, "786-0 [23]": {"system": "786-0", "test": "cells", "details": "Homo sapiens, 786-0, 48 h, read-out: LC50", "description": "Cytotoxicity activity against human 786-0 cells assessed as reduction in cell growth measured after 48 hrs by sulforhodamine B assay"}, "CAKI-1": {"system": "CAKI-1", "test": "cells", "details": "Homo sapiens, CAKI-1, 48 h, read-out: LC50", "description": "Cytotoxicity activity against human CAKI-1 cells assessed as reduction in cell growth measured after 48 hrs by sulforhodamine B assay"}, "MDA-MB-468": {"system": "MDA-MB-468", "test": "cells", "details": "Homo sapiens, MDA-MB-468, 48 h, read-out: LC50", "description": "Cytotoxicity activity against human MDA-MB-468 cells assessed as reduction in cell growth measured after 48 hrs by sulforhodamine B assay"}},
  "data": [
    {"compound": "CCOC(=O)c1ccc(N/N=C/c2cn(-c3ccc(S(N)(=O)=O)cc3)nc2-c2ccc(C)cc2)cc1", "values": [
      {"measurement": "GI50", "setting": "CCRF-CEM", "value": 3.82, "unit": "µM"},
      {"measurement": "GI50", "setting": "MOLT-4", "value": 2.87, "unit": "µM"},
      {"measurement": "GI50", "setting": "SR", "value": 2.65, "unit": "µM"},
      {"measurement": "GI50", "setting": "HOP-62", "value": 6.55, "unit": "µM"},
      {"measurement": "GI50", "setting": "NCI-H522 [1]", "value": 2.07, "unit": "µM"},
      {"measurement": "GI50", "setting": "HCT-15", "value": 1.87, "unit": "µM"},
      {"measurement": "GI50", "setting": "SW-620", "value": 3.66, "unit": "µM"},
      {"measurement": "GI50", "setting": "SF-268 [2]", "value": 4.07, "unit": "µM"},
      {"measurement": "GI50", "setting": "SF-539 [3]", "value": 2.55, "unit": "µM"},
      {"measurement": "GI50", "setting": "SNB-19", "value": 4.1, "unit": "µM"},
      {"measurement": "GI50", "setting": "SNB-75 [4]", "value": 10.1, "unit": "µM"},
      {"measurement": "GI50", "setting": "U-251", "value": 4.23, "unit": "µM"},
      {"measurement": "GI50", "setting": "M14 [5]", "value": 1.75, "unit": "µM"},
      {"measurement": "GI50", "setting": "MDA-MB-435", "value": 2.87, "unit": "µM"},
      {"measurement": "GI50", "setting": "SK-MEL-2", "value": 11.8, "unit": "µM"},
      {"measurement": "GI50", "setting": "SK-MEL-28", "value": 4.5, "unit": "µM"},
      {"measurement": "GI50", "setting": "SK-OV-3 [6]", "value": 24.4, "unit": "µM"},
      {"measurement": "GI50", "setting": "A498", "value": 7.62, "unit": "µM"},
      {"measurement": "GI50", "setting": "MDA-MB-231", "value": 2.56, "unit": "µM"},
      {"measurement": "TGI", "setting": "RPMI-8226 [7]", "value": 3.24, "unit": "µM"},
      {"measurement": "TGI", "setting": "A549 [8]", "value": 4.07, "unit": "µM"},
      {"measurement": "TGI", "setting": "EKVX", "value": 3.17, "unit": "µM"},
      {"measurement": "TGI", "setting": "NCI-H23", "value": 3.26, "unit": "µM"},
      {"measurement": "TGI", "setting": "NCI-H522 [9]", "value": 2.07, "unit": "µM"},
      {"measurement": "TGI", "setting": "HCC 2998", "value": 4.23, "unit": "µM"},
      {"measurement": "TGI", "setting": "HCT-116 [10]", "value": 10.6, "unit": "µM"},
      {"measurement": "TGI", "setting": "HT-29 [11]", "value": 8.38, "unit": "µM"},
      {"measurement": "TGI", "setting": "KM12", "value": 4.59, "unit": "µM"},
      {"measurement": "TGI", "setting": "SF-268 [12]", "value": 34.2, "unit": "µM"},
      {"measurement": "TGI", "setting": "M14 [13]", "value": 3.57, "unit": "µM"},
      {"measurement": "TGI", "setting": "OVCAR-5", "value": 20, "unit": "µM"},
      {"measurement": "TGI", "setting": "786-0 [14]", "value": 5.74, "unit": "µM"},
      {"measurement": "TGI", "setting": "ACHN", "value": 24.3, "unit": "µM"},
      {"measurement": "TGI", "setting": "SN12C", "value": 58.6, "unit": "µM"},
      {"measurement": "TGI", "setting": "UO-31", "value": 14.8, "unit": "µM"},
      {"measurement": "TGI", "setting": "DU-145", "value": 24.4, "unit": "µM"},
      {"measurement": "TGI", "setting": "Hs-578T", "value": 27.2, "unit": "µM"},
      {"measurement": "IC50", "setting": "Carbonic anhydrase 12", "value": 0.155, "unit": "µM"},
      {"measurement": "CC50", "setting": "RPMI-8226 [15]", "value": "> 100", "unit": "µM"},
      {"measurement": "CC50", "setting": "A549 [16]", "value": "> 100", "unit": "µM"},
      {"measurement": "CC50", "setting": "NCI-H522 [17]", "value": "> 100", "unit": "µM"},
      {"measurement": "CC50", "setting": "HCT-116 [18]", "value": 54.2, "unit": "µM"},
      {"measurement": "CC50", "setting": "HT-29 [19]", "value": "> 100", "unit": "µM"},
      {"measurement": "CC50", "setting": "SF-539 [20]", "value": 35, "unit": "µM"},
      {"measurement": "CC50", "setting": "SNB-75 [21]", "value": "> 100", "unit": "µM"},
      {"measurement": "CC50", "setting": "Malme-3M", "value": 62.5, "unit": "µM"},
      {"measurement": "CC50", "setting": "SK-MEL-5", "value": 40.2, "unit": "µM"},
      {"measurement": "CC50", "setting": "NCI/ADR-RES", "value": "> 100", "unit": "µM"},
      {"measurement": "CC50", "setting": "SK-OV-3 [22]", "value": "> 100", "unit": "µM"},
      {"measurement": "CC50", "setting": "786-0 [23]", "value": 68, "unit": "µM"},
      {"measurement": "CC50", "setting": "CAKI-1", "value": "> 100", "unit": "µM"},
      {"measurement": "CC50", "setting": "MDA-MB-468", "value": 99.3, "unit": "µM"}
    ]}
  ]
}
